Test results as given in patent US11401278B2, “Macrocyclic indole derivatives” (The Broad Institute, Inc., priority 2017, dated 2022).
Structures can show the parent of a compound that is named as a salt. Where two headings read alike, the source gives them in different places.

How the values were obtained:
SUDHL5 [1] = test system: SUDHL5
SUDHL10 [2] = assay: Induction of caspase-3/7 activity (Assay 4), SUDHL10; assay type: cell-based; details: caspase-3/7 induction, median
Experimental: (§1) Cellular Assays Assay 4 Induction of Caspase-3/7 Activity Upon Treatment of Cells with Selected Compounds
(§2) The BH3-domain of MCL-1 sequesters pro-apoptotic proteins, thereby inhibiting apoptosis. In contrast, MCL-1 inhibitors are expected to antagonize this effect leading to an increase in apoptosis, which can be determined by measuring the activity of caspase-3/7.
(§3) The activity of caspase-3/7 was determined in DLBCL (Diffuse large B-cell lymphoma) cell lines (SUDHL5 and SUDHL10) upon treatment with different compounds, using the Caspase-Glo® 3/7 reagent from Promega (G8092).
(§4) Rim wells were excluded. The cells were incubated for 3 hours in a humidified incubator at 37° C.
(§5) For the evaluation of the results, the background measured with “medium-only” was subtracted from all other values. […] The Bella DRC Master Sheet was used to calculate EC50s, with fixed C0=1 and CI=plateau/max induction for the reference compound.

SUDHL5 [3] = assay: Induction of caspase-3/7 activity (Assay 4), SUDHL5; assay type: cell-based; details: caspase-3/7 induction, median
Experimental: as §1, §2, §3, §4, §5

SUDHL10 [4] = test system: SUDHL10
MCL-1 = MCL-1 (Homo sapiens (Human), UniProt Q07820, K194A/K197A/R201A); assay: Protein-protein interaction assay MCL-1/Noxa BH3 peptide (MCL-1 assay, TR-FRET); assay type: binding; details: MBP-MCL-1 / Noxa BH3 peptide, median
Experimental: Protein-Protein Interaction Assay: MCL-1/Noxa BH3 Peptide (MCL-1 Assay)
The dose-dependent inhibition by the compounds described in this invention of the interaction between MCL-1 and the BH3 domain of Noxa (both human) was determined using a steady state binding competition assay with time-resolved fluorescence energy transfer (TR-FRET) readout. For that purpose MCL-1 (amino acids 173-329, N-terminal fused to Maltose Binding Protein (MBP) SEQ ID 1) and a synthetic Noxa BH3-derived peptide of sequence Biotin-PEG2-PEG2-PAELEVE-Nva-ATQLRRFGDKLNFRQKLL-amide (SEQ ID 2) served as protein receptor and tracer ligand respectively. The MBP-MCL-1 was purchased from Beryllium (Bedford, Mass., USA). The expression and purification of this protein construct has been described elsewhere (DOI:10.1371/journal.pone.0125010). The Noxa BH3-derived peptide can be obtained from e.g. Biosyntan (Berlin, Germany).
In the assay 11 different concentrations of each compound (0.1 nM, 0.33 nM, 1.1 nM, 3.8 nM, 13 nM, 44 nM, 0.15 μM, 0.51 μM, 1.7 μM, 5.9 μM and 20 μM) were typically measured as duplicates in the same microtiter plate. For that, 100-fold concentrated DMSO solutions were prepared by serial dilutions (1:3.4) of a 2 mM stock solution in a clear, 384-well microtiter plate (Greiner Bio-One, Frickenhausen, Germany). From there, 50 nl were transferred in a dark test plate (Greiner Bio-One, Frickenhausen, Germany). The assay was initiated by addition of 2 μl of a 2.5-fold concentrated MBP-MCL-1 solution (usually for a 1 nM end concentration in 5 μl reaction volume) in aqueous assay buffer [50 mM Tris/HCl pH 7, 100 mM sodium chloride (NaCl), 50 mM potassium fluoride (KF), 0.005% Tween-20, 2 mM DTT, 0.1% bovine gamma globulin (BGG)] to the compounds in the assay plate. This was followed by a 10-minute incubation step at 22° C. for pre-equilibration of the putative complex between MBP-MCL-1 and the compounds. After that, 3 μl of a 1.67-fold concentrated solution (in assay buffer) consisting of Noxa BH3-derived peptide (1 nM end concentration) and TR-FRET detection reagents [1.67 nM anti-MBP-Eu cryptate and 1.67 nM streptavidin-XL665 (both from Cisbio Bioassays, Codolet, France)], were added.
The mixture was incubated in the dark for one hour at 22° C. and then overnight at 4° C. The formation of MCL-1/Noxa complexes was determined by measuring the resonance energy transfer of the anti-MBP-Eu-cryptate antibody to the streptavidin-XL665 present in the reaction. For that purpose, the fluorescence emission at 620 nm and 665 nm after excitation at 330-350 nm was measured in a TR-FRET measuring instrument, for instance a Rubystar or a Pherastar (both from BMG Lab Technologies, Offenburg, Germany) or a Viewlux (Perkin-Elmer). The ratio of the emission at 665 nm and at 622 nm was used as indicator of the amount of MCL-1/NOXA complexes present.
The resulting data (ratio) were normalized, taking 0% inhibition as the mean value of control measurements (usually 32 data points) where all reagents were included. In this case 50 nl DMSO were used instead of compounds. A 100% inhibition corresponded to the mean value of control measurements (usually 32 data points) where all reagents except MCL-1 were included. IC50 values were determined by regression analysis based on a 4 parameter equation (minimum, maximum, IC50, Hill; Y=Max+(Min−Max)/(1+(X/IC50)^HiII) using the Screener Software (Genedata).

SUDHL5 [5] = assay: Induction of cytotoxicity (Assay 6), SUDHL5; details: read-out: Cytotox SUDHL5 [M] (median) IC50, CellTiter-Glo, 5 hours, SUDHL5
SUDHL10 [6] = assay: Induction of cytotoxicity (Assay 6), SUDHL10; details: read-out: Cytotox SUDHL10 [M] (median) IC50, CellTiter-Glo, 5 hours, SUDHL10
A2780 = assay: Antiproliferation assay (Assay 7), A2780; assay type: cell-based; details: CellTiter-Glo, several values per example
Experimental: (§6) Assessment of the Anti-Proliferative Effect of Compounds in Different Cell Lines
(§7) The impact of compounds on the proliferation of different cell lines was assessed using the CellTiter-Glo® Luminescent Cell Viability reagent from Promega (G7573).
(§8) In parallel, cells were plated in a reference (day 0) plate for time zero determination.
(§9) Rim wells were excluded. The cells were incubated for 72 hours in a humidified incubator at 37° C. The day 0 plate was measured by adding 30 μL/well of CTG solution (CellTiter-Glo® Luminescent Cell Viability reagent, Promega G7573) to time zero wells in the reference plate followed by a 10 minutes incubation and luminescence reading at 0.1 ms. using the PHERAstar FS microplate reader (BMG Labtech).
(§10) After 72 hours incubation, the treated plates were measured in the same way as the day 0 plate mentioned above.

MV-4-11 = assay: Antiproliferation assay (Assay 7), MV-4-11; assay type: cell-based; details: CellTiter-Glo, several values per example
Experimental: as §6, §7, §8, §9, §10

SUDHL5 [7] = assay: Antiproliferation assay (Assay 7), SUDHL5; assay type: cell-based; details: CellTiter-Glo, median, read-out: Antiproli SUDHL5 [M] (median) IC50
Experimental: as §6, §7, §8, §9, §10

[8] = amine bond
AMO-1 = assay: Antiproliferation assay (Assay 7), AMO-1; assay type: cell-based; details: CellTiter-Glo, 72 hours, several values per example, read-out: Antiproli AMO-1 [M] IC50
Experimental: as §6, §7, §8, §9, §10

HMC-1-8 = assay: Antiproliferation assay (Assay 7), HMC-1-8; assay type: cell-based; details: CellTiter-Glo, 72 hours, several values per example, read-out: Antiproli HMC-1-8 [M] IC50
Experimental: as §6, §7, §8, §9, §10

[9] = Homo sapiens, A2780, 72 h, read-out: Antiproli A2780 [M] IC50
[10] = Homo sapiens, MV4-11, 72 h, read-out: Antiproli MV-4-11 [M] IC50

Chain of MCL-1 (Q07820 whole entry K194A/K197A/R201A, looked up): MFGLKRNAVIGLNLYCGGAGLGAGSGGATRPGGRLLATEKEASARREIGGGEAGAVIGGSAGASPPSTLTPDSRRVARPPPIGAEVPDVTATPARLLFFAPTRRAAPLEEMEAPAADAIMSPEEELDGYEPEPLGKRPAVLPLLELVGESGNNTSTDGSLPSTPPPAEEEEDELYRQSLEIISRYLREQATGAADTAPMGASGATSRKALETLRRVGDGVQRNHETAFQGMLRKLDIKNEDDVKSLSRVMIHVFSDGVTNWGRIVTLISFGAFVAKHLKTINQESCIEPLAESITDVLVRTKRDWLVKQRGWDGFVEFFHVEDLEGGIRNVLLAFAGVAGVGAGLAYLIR

**Q.** Which IC50 (SUDHL5 [1]) does the source give for CCc1c2c(nn1C)C(CCN1CCOCC1)N(C)S(=O)(=O)CCCn1c(C(=O)O)c(CCCOc3cccc4cc(F)ccc34)c3ccc(Cl)c-2c31 (single isomer, unassigned) [Example 72, 4-chloro-3-ethyl-7-{3-[(6-fluoronaphthalen-1-yl)oxy]propyl}-2,14-dimethyl-15-[2-(morpholin-4-yl)ethyl]-13,13-dioxo-10,11,12,13,14,15-hexahydro-2H-13lambda6-pyrazolo[3′,4′:4,5][1,2,8]thiadiazacycloundecino[6,7,8-hi]indole-8-carboxylic acid (Mixture of Stereoisomers)] here?
**A.** 0.0087 µM

**Q.** And the EC50 (SUDHL10 [2]; 3 hours)?
**A.** 0.027 µM

**Q.** What about the EC50 (SUDHL5 [3]; 3 hours) of the same molecule?
**A.** 0.015 µM

**Q.** And the IC50 (SUDHL10 [4])?
**A.** 0.034 µM

**Q.** What about the IC50 (MCL-1) of the same molecule?
**A.** 0.0011 µM

**Q.** With Cc1c2c(nn1C)CN(CCN1CCOCC1)S(=O)(=O)CCCn1c(C(=O)O)c(CCCOc3cccc4ccccc34)c3cccc-2c31 (single isomer, unassigned; enantiomer 1) [Example 2, 2,3-Dimethyl-14-[2-(morpholin-4-yl)ethyl]-7-{3-[(naphthalen-1-yl)oxy]propyl}-13,13-dioxo-10,11,12,13,14,15-hexahydro-2H-13λ^6-pyrazolo[3′,4′:4,5][1,2,8]thiadiazacycloundecino-[6,7,8-hi]indole-8-carboxylic acid-N-ethylethanamine salt (Enantiomer 1)] as the molecule, how does the IC50 (SUDHL5 [5]) read?
**A.** 3.5e-06 M

**Q.** And the IC50 (SUDHL10 [6])?
**A.** 9.8e-06 M

**Q.** And the EC50 (SUDHL10 [2]; 3 hours)?
**A.** 11 µM

**Q.** What about the IC50 (A2780; 72 hours, listed as 02, read-out: Antiproli A2780 [M] IC50) of the same molecule?
**A.** > 3.3e-05 M

**Q.** And the IC50 (A2780; [9])?
**A.** 2.66e-05 M

**Q.** What about the EC50 (SUDHL5 [3]; 3 hours) of the same molecule?
**A.** 3.9 µM

**Q.** What about the IC50 (MV-4-11; 72 hours, listed as 02, read-out: Antiproli MV-4-11 [M] IC50) of the same molecule?
**A.** 8.63e-06 M

**Q.** And the IC50 (MV-4-11; [10])?
**A.** 1.17e-05 M

**Q.** And the IC50 (MCL-1)?
**A.** 0.0034 µM

**Q.** And the IC50 (SUDHL5 [7]; 72 hours)?
**A.** 4.4e-06 M

**Q.** Which results are given for Cc1c2c(nn1C)CN(C)S(=O)(=O)CCCC1C(C(=O)O)=C(CCCOc3cccc4ccccc34)c3cccc-2c31 (racemic) [Example 10, (rac)-2,3,14-Trimethyl-7-[3-(1-naphthyloxy)propyl]-11,12,14,15-tetrahydro-2H,10H-pyrazolo[3′,4′:4,5][1,2,8]thiadiazacycloundecino[6,7,8-hi]indole-8-carboxylic acid 13,13-dioxide]?
**A.** IC50 (SUDHL5 [5]; Homo sapiens, SU-DHL-5, 5 h): 3.8e-06 M; IC50 (SUDHL10 [6]; Homo sapiens, SU-DHL10, 5 h): 1.2e-05 M; EC50 (SUDHL10 [2]; Homo sapiens, SU-DHL10, 3 h): 14 µM; IC50 (A2780; 72 hours, read-out: Antiproli A2780 [M] IC50): > 3.3e-05 M; IC50 (A2780; [9]): 1.68e-05 M; EC50 (SUDHL5 [3]; Homo sapiens, SU-DHL-5, 3 h): 3.1 µM; IC50 (MV-4-11; 72 hours, read-out: Antiproli MV-4-11 [M] IC50): 1.28e-05 M; IC50 (MV-4-11; [10]): 1.54e-05 M; IC50 (MCL-1): 0.0074 µM; IC50 (SUDHL5 [7]; Homo sapiens, SU-DHL-5, 72 h): 3.8e-06 M

**Q.** For CCOC(=O)c1c(CCCOc2cccc3ccccc23)c2cccc3c2n1CCCS(=O)(=O)N(C)C(CCN1CCOCC1)c1nn(C)c(C)c1-3 (stereo not drawn), which ring closure, yield of all isomers ([8]; from CCOC(=O)c1[nH]c2c(-c3c(C(CCN4CCOCC4)N(C)S(=O)(=O)CCCCl)nn(C)c3C)cccc2c1CCCOc1cccc2ccccc12, Cs2CO3, acetonitrile, 49.6 mM, 60.0 °C, 48.0 h) is on record?
**A.** 99.7%

**Q.** Which ring closure, yield of all isomers ([8]; from CCOC(=O)c1[nH]c2c(-c3c(CN(CCN4CCCCC4)S(=O)(=O)CCCCl)nn(C)c3CC)cccc2c1CCCOc1cccc2ccccc12, NaH, DMF, 25.0 mM, 60.0 °C, 21.0 h) does the source give for CCOC(=O)c1c(CCCOc2cccc3ccccc23)c2cccc3c2n1CCCS(=O)(=O)N(CCN1CCCCC1)Cc1nn(C)c(CC)c1-3 here?
**A.** 69%

**Q.** Which IC50 (SUDHL5 [1]) does the source give for CCc1c2c(nn1C)C(CCN1CCOCC1)N(C)S(=O)(=O)CCCn1c(C(=O)O)c(CCCOc3cccc4cc(F)ccc34)c3ccc(Cl)c-2c31 (racemic) [Example 74, (rac) 4-chloro-3-ethyl-7-{3-[(6-fluoronaphthalen-1-yl)oxy]propyl}-2,14-dimethyl-15-[2-(morpholin-4-yl)ethyl]-13,13-dioxo-10,11,12,13,14,15-hexahydro-2H-13lambda6-pyrazolo[3′,4′:4,5][1,2,8]thiadiazacycloundecino[6,7,8-hi]indole-8-carboxylic acid (Racemate 2)] here?
**A.** 0.013 µM

**Q.** And the EC50 (SUDHL10 [2]; 3 hours)?
**A.** 0.014 µM

**Q.** What about the EC50 (SUDHL5 [3]; 3 hours) of the same molecule?
**A.** 0.011 µM

**Q.** What about the IC50 (SUDHL10 [4]) of the same molecule?
**A.** 0.017 µM

**Q.** And the IC50 (AMO-1)?
**A.** 3.9e-08 M

**Q.** And the IC50 (MCL-1)?
**A.** 0.0011 µM

**Q.** What about the IC50 (SUDHL5 [7]; 72 hours) of the same molecule?
**A.** 9.9e-09 M

**Q.** What about the IC50 (HMC-1-8) of the same molecule?
**A.** 3.2e-07 M

**Q.** For CCOC(=O)c1c(CCCOc2cccc3cc(F)ccc23)c2ccc(Cl)c3c2n1CCCS(=O)(=O)N(CCN1CCOCC1)Cc1nn(C)c(CC)c1-3, which ring closure, yield of all isomers ([8]; from CCOC(=O)c1[nH]c2c(-c3c(CN(CCN4CCOCC4)S(=O)(=O)CCCCl)nn(C)c3CC)c(Cl)ccc2c1CCCOc1cccc2cc(F)ccc12, cesium carbonate, acetonitrile, 50.3 mM, 40.0 °C, 48.0 h) is on record?
**A.** 90.3%
